This note sets out measurements from article PMC9820303, “^αN-Acetyl β-Endorphin Is an Endogenous Ligand of σ1Rs That Regulates Mu-Opioid Receptor Signaling by Exchanging G Proteins for σ2Rs in σ1R Oligomers” (International Journal of Molecular Sciences, 2022).

Experiment [1] concerns NMDAR overactivation seizures in CD1 mice. The experiment is described as follows: NMDA-induced seizures (1 nmol NMDA icv). The class given is in vivo, mouse. The note with it: for effect on behavioral signs evoked by NMDA: 8 mice. The method, then: Figure 1 ^αN-acetyl β-End 1–31 reduced ischemic brain damage and diminished seizures induced by NMDAR overactivation. Implication of σ1Rs. (A) ^αN-acetyl β-End 1–31 administration diminished ischemic brain damage in wild-type but not σ1R^−/− mice. Upper panel: representative 2,3,5-triphenyltetrazolium chloride (TTC)-stained brain section images obtained from saline- and drug-treated mice (3 nmol, 1 h after surgery) 48 h after pMCAO. White indicates infarction; red staining indicates normal tissue. Lower panel: the bar graphs quantitatively compare the infarct volume based on TTC staining from wild-type mice treated with saline, β-End 1–31 and the σ1R agonist PRE084 (white bars). The reducing effect of ^αN-acetyl β-End 1–31 was counteracted by β-End 1–31 and PRE084 (gray bars). In σ1R^−/− mice, the positive effect of ^αN-acetyl β-End 1–31 was not observed. […] Effects of PPCC, β-End 1–31 and ^αN-acetyl β-End 1–31 on seizures induced by NMDA in wild-type and σ1R^−/− mice. The mice received icv 1 nmol of the NMDAR agonist NMDA 30 min after the other drugs (3 nmol) and were then immediately evaluated. […] ANOVA followed by the Holm–Sidak multiple comparisons test, p < 0.05, 1-β > 0.80.
Seizures were induced by injection of NMDA (1 nmol/mouse icv, in a volume of 4 μL sterile saline) as described by others. […] The seizure activity consisted of a mild myoclonic phase (immobility, mouth and facial movements, tail extension, circling), rearing (violent movements of the whole body, rearing), wild running (episodes of running with explosive jumps), clonic convulsions (characterized by rigidity of the whole body, including limb flexion/extension), followed by continuous/repetitive seizure activity (tonic seizures) and, in approximately 15–20% of the animals, death. The episode typically began a few seconds after injection and evolved to its maximal intensity in less than 1 min.

Experiment [2] deals with CCI CD1 mice. Put plainly: Chronic sciatic nerve constriction injury (CCI), mechanical allodynia, von Frey test. The class given is in vivo, mouse. The procedure:
Implication of σ1Rs. […] Upper panel: the withdrawal thresholds of the contralateral and ipsilateral paws were measured before (indicated as 0) and up to 14 days after surgery. […] Middle panel: 0.3 and 3 nmol of ^αN-acetyl β-End 1–31 were administered icv 7 days after surgery, and the nociceptive threshold was evaluated at the indicated postinjection intervals (in minutes). For every time interval studied in min or days, * indicates a significant difference from the group that received saline instead of ^αN-acetyl β-End 1–31; ϕ significant difference from the effect of 3 nmol ^αN-acetyl β-End 1–31. […] All data are presented as the mean ± SD of six mice. ANOVA followed by the Holm–Sidak multiple comparisons test, p < 0.05, 1-β > 0.80. […] Upper panel: wild-type mice were injected icv with saline, ^αN-acetyl β-End 1–31 (1 nmol/mouse) or the combination of the σ1R agonist PPCC (3 nmol/mouse) plus ^αN-acetyl β-End 1–31 20 min before morphine and β-End 1–31. Analgesia was evaluated by the warm water (52 °C) tail-flick test at the interval postinjection corresponding to their peak effect, 30 min. Lower panel: σ1R^−/− mice received 1 nmol ^αN-acetyl β-End 1–31, 20 min before morphine and β-End 1–31 and analgesia was evaluated as described above. Eight mice were used per strain and treatment. * Significant difference with respect to the group treated with morphine or β-End 1–31 alone. ANOVA followed by the Holm–Sidak multiple comparisons test, p < 0.05, 1-β > 0.80.
After the basal mechanical sensitivity of the mice was tested, neuropathic pain was induced by chronic sciatic nerve constriction injury (CCI) surgery under isoflurane/oxygen anesthesia using the procedure described by Bennett and Xie with modifications. Briefly, a 0.5 cm incision was made in the right midthigh, the biceps femoris muscle was separated, and the sciatic nerve was exposed proximal to its trifurcation. Two ligatures (5/0 braided silk suture; Lorca Marin, Murcia, Spain, 70,014) were tied around this nerve approximately 1 mm apart until a short flick of the ipsilateral hind limb was observed. The incision was then closed in layers with a 4–0 Ethicon silk suture. The same procedure was used for sham surgery, except that the sciatic nerve was exposed but not ligated. The tactile pain threshold of both the ipsilateral and contralateral hind paws was then assessed before and on different days post-surgery. The mice were individually placed in a transparent plastic cage with a wire-mesh bottom that allowed full access to the paws. After a habituation period of 20 min, a mechanical stimulus was delivered to the plantar surface from below the floor of the test chamber to measure allodynia using an automatic von Frey apparatus (Ugo Basile #37,450, Comerio, Italy). A steel rod (0.5 mm diameter) was pushed against the hind paw over a 10 s period as the force increased from 0 to 10 g. When the mouse withdrew its hind paw, the mechanical stimulus was automatically stopped, and the force at which withdrawal occurred was recorded. At each time point, three separate threshold measurements were obtained from each hind paw and then averaged.

Experiment [3] addresses T1, σ1R oligomers (Mus musculus, UniProt O55242).
T1 construct: The coding region of the full-length murine σ1R (AF004927); GST (N); made in house; host or cells: E. coli BL21 (KRX)
Put plainly: In vitro made σ1R oligomers on agarose-σ1R. The note with it: agarose-σ1R plus free σ1Rs (100 nM), Tris-HCl pH 7.4, 0.2% CHAPS, 2.5 mM CaCl2. The experiment is classed as biochemical, murine. The method, then: In ex vivo fishing assays performed on mouse solubilized brain membranes enriched in synaptosomes (SBM), our bait, agarose-covalently attached σ1Rs (agarose-σ1R), captured diverse prey, such as trimeric G proteins, σ1Rs and σ2Rs (Figure 4C). Because σ1Rs form oligomers in vivo that can be altered by ligands, we added in vitro free σ1Rs to agarose-σ1Rs. After removing the unbound σ1Rs, the extent of the σ1R oligomerization that remained around the agarose-σ1R was determined by SDS-PAGE followed by Western blot analysis (Figure S3).
Figure S4. In vitro made σ1R oligomers. A) Effect of σ1R ligands on the formation of σ1R oligomers.
Agarose (Θ)-attached σ1Rs were incubated for 30 min in the presence of recombinant free σ1Rs (100 nM) in 300 μL of 50 mM Tris-HCl (pH 7.4), 0.2% CHAPS, and 2.5 mM CaCl2. After removing unbound σ1R proteins, the assays were performed in the absence (control) or presence of increasing concentrations of σ1R ligands. The agarose-bound σ1R protein complexes were obtained by centrifugation, washed three times, solubilized in 2x Laemmli buffer containing β-mercaptoethanol, resolved by SDS-PAGE, and analyzed by Western blotting (for more details see Methods). […] The G proteins that remained bound to Θ-σ1R oligomers were determined as in Figure 4C. The arrows indicate an estimated afﬁnity of the ligand for σ1Rs, as determined through in vitro assays. […]

Where [4] appears, read: 3 nmol icv 30 min before 1 nmol NMDA icv, wild-type mice.

T1 sequence (O55242 whole entry): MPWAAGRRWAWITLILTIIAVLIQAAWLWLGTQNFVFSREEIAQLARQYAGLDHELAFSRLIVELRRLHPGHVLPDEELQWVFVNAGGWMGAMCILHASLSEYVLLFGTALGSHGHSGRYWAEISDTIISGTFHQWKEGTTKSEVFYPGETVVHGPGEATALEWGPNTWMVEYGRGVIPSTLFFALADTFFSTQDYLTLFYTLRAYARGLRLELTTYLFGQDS

In the case of `COC(=O)[C@]1(c2ccc(C)cc2)C[C@@H]1CN1CCC(O)(c2ccccc2)CC1` [PPCC, (1R,2S/1S,2R)-2-[4-hydroxy-4-phenylpiperidin-1-yl)methyl]-1-(4-methylphenyl) cyclopropanecarboxylate, reference compound], the “effect on behavioral signs evoked by NMDA” value in experiment [1] (setting [4]) is on record as “did not significantly alter the behavioral effects”. Further, the “effect on the anticonvulsant action of ^αN-acetyl β-End 1–31” value in experiment [1] (3 nmol icv with ^αN-acetyl β-End 1–31, wild-type mice) is “prevented ^αN-acetyl β-End 1–31 from alleviating these signs”.
In the case of `Cl.O=C(OCCN1CCOCC1)C1(c2ccccc2)CCCCC1` [PRE084, 2-(4-morpholinethyl)-1-phenylcyclohexanecarboxylate hydrochloride, reference compound], the “effect on the antiallodynic action of ^αN-acetyl β-End 1–31” value in experiment [2] (3 nmol icv together with 3 nmol ^αN-acetyl β-End 1–31) is given as “prevented the β-End 1–31 ^αN-acetyl derivative from diminishing the response of CCI mice in the von Frey test”.
Turning to “KKGE [β-End 28–31, C-terminal tetrapeptide of β-End 1–31]”, the “effect on in vitro made σ1R oligomers” value in experiment [3] was “released σ1Rs from these oligomers”.
Consider “^αN-acetyl β-End 1–31: β-End 1–31 acetylated at N terminal Y1, α position”, for which, in experiment [1] (setting [4]), the “effect on clonic convulsions and tonic seizures” value is “only a tendency to diminish clonic convulsions and tonic seizures”; the “effect on behavioral signs evoked by NMDA” value is “partially protected the mice from hypermobility and convulsive rearing”. For the same compound, the “anticonvulsant effects in σ1R−/− mice” value in experiment [1] (σ1R−/− mice, 3 nmol icv) is recorded as “absent”. The “effect on in vitro made σ1R oligomers” value in experiment [3] was “released σ1Rs from these oligomers”. Besides, the “effect on mechanical allodynia, 0.3 nmol” value in experiment [2] (0.3 nmol icv 7 days after CCI surgery, von Frey, 6 mice) was “significantly reduced mechanical allodynia”. Besides, the “effect on mechanical allodynia, 3 nmol” value in experiment [2] (3 nmol icv 7 days after CCI surgery, von Frey, 6 mice) is given as “practically restored the von Frey response to the levels observed presurgery”. Further, in experiment [2] (higher dose (3 nmol icv), partial protection for an additional 24 h), the “duration of clear protection” value came out at 24 h. Further, the “time after icv administration at which the beneficial effect was observed” value in experiment [2] (icv, 7 days after CCI surgery) is on record as 10 to 15 min.
